Patent US8921308B2, “Antimicrobial peptide, branched forms thereof and their use in the treatment of bacteria infections” (priority 2010, dated 2014)
≈ marks a conversion by molar mass, not a printed value. Read-outs that look alike come from different tables or passages of the source.

What was measured:
[1] = tested on: human erythrocytes; assay: Haemolysis of human erythrocytes (method of Parpart); type: cell-based; settings: for haemolytic activity (percentage of haemolysis): red cells of human
Experimental: Effect of tetra-branched L-M33, D-M33 and monomeric Indolicidin on haemolysis of human erythrocytes. The figures show the haemolytic activity of the three peptides on human erythrocytes evaluated by means of erythrocyte osmotic resistance of Parpart method in NaCl. The percentage of haemolysis is calculated by means of a calibration curve obtained by incubating erythrocytes with increasing concentrations of NaCl. […] The percentage of haemolysis of untreated blood after 19 hours (control) is very limited (<1%).
Haemolysis of fresh human erythrocytes was determined using the method of Parpart, summarized as follows. A calibration curve was constructed by suspending fresh human erythrocytes in phosphate buffer (pH 7.4, 110 mM sodium phosphate) with various concentrations of NaCl and incubated for 30 min at room temperature. Samples were centrifuged at 500×g for 5 minutes, and haemoglobin release was monitored by measuring the absorbance of supernatants at 540 nm. The absorbance obtained with 0.1% NaCl corresponded to 100% lysis and that with 1% NaCl, to 0% lysis. Peptides dissolved in PBS were added to human erythrocyte solution at several concentrations. The resulting suspension was incubated separately at 37° C. for 2 h and 24 h. Release of hemoglobin was monitored by measuring the absorbance of the suspernatant at 540 nm after centrifuging and haemolysis percentage was calculated using the calibration curve.

[2] = tested on: Staphylococcus aureus 3851; settings: 3851, 24 h
Experimental: (§1) Minimum Inhibitory Concentration (MIC) was determined by a standard microdilution assay as recommended by the National Committee for Clinical Laboratory Standards (NCCLS) using cation-supplemented Mueller-Hinton (MH) broth (Oxoid Ltd. Basingstoke, UK) and a bacterial inoculum of 5×10^4 CFU per well, in a final volume of 100 μl. Results were recorded by visual inspection after 24 h of incubation at 37° C.

[3] = target: Aureolysin (Staphylococcus aureus, UniProt P81177); type: in vitro ADME; settings: incubation with S. aureus Aureolysin, 1 hour / 24 hours
Chain of Aureolysin (P81177 209-509): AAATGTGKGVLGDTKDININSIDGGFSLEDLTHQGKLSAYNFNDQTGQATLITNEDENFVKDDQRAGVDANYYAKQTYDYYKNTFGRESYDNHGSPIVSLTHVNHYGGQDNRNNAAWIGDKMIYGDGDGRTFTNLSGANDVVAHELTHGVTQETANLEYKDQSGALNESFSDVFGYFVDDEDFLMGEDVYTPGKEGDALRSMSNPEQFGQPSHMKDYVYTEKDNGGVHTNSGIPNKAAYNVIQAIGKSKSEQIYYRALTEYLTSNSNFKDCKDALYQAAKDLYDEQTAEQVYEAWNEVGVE
Experimental: HPLC profiles of tetra-branched peptides L-M33 (A) and D-M33 (B) after incubation with the protease Aureolysin derived from S. aureus.

[4] = tested on: Acinotebacter baumannii RUH 134; type: cell-based; settings: 24 h
Experimental: (§2) Peptide MICs were determined against strains of several bacterial species, including Gram-negative and Gram-positive pathogens (Table 1 and 2). Activity of tetra-branched D-M33 was retained against MDR strains with various resistance mechanisms (such as extended-spectrum beta-lactamases and carbapenemases), including MDR P. aeruginosa strains from CF patients. The antimicrobial activity of tetra-branched D-M33 appeared slightly better with respect to tetra-branched L-M33 for MDR strains of Pseudomonas and one strain of Klebsiella and sensitively better respect to tetra-branched L-M33 for the two strains of Staphyloccoccus aureus reported in Table 1.

[5] = tested on: E. coli ATCC 25922; type: cell-based; settings: ATCC 25922, 24 h
Experimental: as §2

[6] = tested on: P. aeruginosa VenM rugosa 05/04/2005; type: cell-based; settings: VenM rugosa 05/04/2005, 24 h
Experimental: as §2

[7] = tested on: Klebsiella pneumoniae ATCC 13833; type: cell-based; settings: ATCC 13833, 24 h
Experimental: as §2

[8] = tested on: P. aeruginosa PAO-1; type: cell-based; settings: PAO-1, 24 h
Experimental: as §2

[9] = tested on: Acinotebacter baumannii RUH 875; type: cell-based; settings: 24 h
Experimental: as §2

[10] = tested on: C. glabrata ATCC 90030; settings: ATCC 90030, 24 h
[11] = tested on: C. parapsilosis ATCC 90018; settings: ATCC 90018, 24 h
[12] = tested on: C. tropicalis 6597; settings: 6597, 24 h
[13] = tested on: S. capitis ATCC 27840; assay: MIC, microdilution assay; type: cell-based; settings: S. capitis ATCC 27840, reference strain
Experimental: as §1

[14] = tested on: S. epidermidis ATCC 14990; assay: MIC, microdilution assay; type: cell-based; settings: S. epidermidis ATCC 14990, reference strain
Experimental: as §1

[15] = tested on: S. pneumoniae 47D22; settings: 47D22, 24 h
Experimental: as §1

[16] = tested on: S. pneumoniae 47C12; settings: 47C12, 24 h
Experimental: as §1

[17] = tested on: S. agalactiae ATCC 13813; settings: ATCC 13813, 24 h
Experimental: as §1

[18] = tested on: S. pneumoniae ATCC 49619; settings: ATCC 49619, 24 h
Experimental: as §1

[19] = tested on: E. faecalis FI74B4 VSE; settings: 24 h
Experimental: as §1

[20] = tested on: E. faecium FI81B2 VSE; settings: 24 h
Experimental: as §1

[21] = tested on: S. aureus ATCC 29213; settings: ATCC 29213, 24 h
Experimental: as §1

[22] = tested on: S. epidermidis 4761/1; settings: 4761/1, 24 h
Experimental: as §1

[23] = tested on: E. faecalis ATCC 29212; settings: ATCC 29212, 24 h
Experimental: as §1

[24] = tested on: E. faecium FI81B1 VRE; settings: 24 h
Experimental: as §1

[25] = tested on: S. epidermidis 6154; settings: 6154, 24 h
Experimental: as §1

[26] = tested on: C. albicans 9833; settings: 9833, 24 h
[27] = tested on: C. krusei ATCC 6268; settings: ATCC 6268, 24 h
[28] = animals treated ip, peptide dose 100 mg/Kg
[29] = tested on: E. coli TG1; assay: In vivo antibacterial activity, lethal E. coli infection in mice; settings: Balb-c mice, LD100 E. coli ip; single dose 10 mg/Kg ip 1 hour later
Experimental: (§3) In vivo antibacterial activity of tetra-branched D-M33 peptide. Balb-c mice (20 g) were intra-peritoneally injected with a lethal amount of E. coli TG1 cells (1×10^9 CFU). Continuous line (Ctr) indicates mice only injected ip with bacteria and no D-M33. Broken line indicates mice injected ip with bacteria and a single injection of D-M33 peptide 10 mg/Kg 1 hour later.
(§4) Tetra-branched D-M33 peptide was analysed for its antibacterial activity in mice infected with lethal amounts of the Gram-negative bacterium E. coli or the Gram-positive bacterium S. aureus.
(§5) Balb-c mice were infected with the LD100 of bacteria and treated 1 hour later with the peptide by ip administration.

[30] = tested on: S. aureus USA 300; assay: In vivo antibacterial activity, lethal S. aureus infection in mice; settings: Balb-c mice, LD100 S. aureus ip; single dose 25 mg/Kg ip 1 hour later
Experimental: as §3, with “S. aureus USA 300” for “E. coli TG1”, “(5×10^6 CFU) mixed in a 7% mucin solution. Control” for “(1×10^9 CFU). Continuous”, “D-M33” for “Broken”, “25” for “10”, “later. P<0.05.” for “later.”
as §4, §5

With Indolicidin [reference compound] as the compound, how does the “haemolysis, result in words” value ([1]; human erythrocytes (FIG. 2)) read?
Its value is “more haemolytic”.

Which results are given for `CC[C@H](C)[C@H](NC(=O)[C@H](CCCCN)NC(=O)[C@@H](N)CCCCN)C(=O)N[C@@H](CCCNC(=N)N)C(=O)N[C@H](C(=O)N[C@@H](CCCNC(=N)N)C(=O)N[C@@H](CC(C)C)C(=O)N[C@@H](CO)C(=O)N[C@@H](C)C(=O)NCCCC[C@H](NC(=O)[C@H](C)NC(=O)[C@H](CO)NC(=O)[C@H](CC(C)C)NC(=O)[C@H](CCCNC(=N)N)NC(=O)[C@@H](NC(=O)[C@H](CCCNC(=N)N)NC(=O)[C@@H](NC(=O)[C@H](CCCCN)NC(=O)[C@@H](N)CCCCN)[C@@H](C)CC)C(C)C)C(=O)NCCCC[C@H](NC(=O)[C@H](CCCCNC(=O)[C@H](C)NC(=O)[C@H](CO)NC(=O)[C@H](CC(C)C)NC(=O)[C@H](CCCNC(=N)N)NC(=O)[C@@H](NC(=O)[C@H](CCCNC(=N)N)NC(=O)[C@@H](NC(=O)[C@H](CCCCN)NC(=O)[C@@H](N)CCCCN)[C@@H](C)CC)C(C)C)NC(=O)[C@H](C)NC(=O)[C@H](CO)NC(=O)[C@H](CC(C)C)NC(=O)[C@H](CCCNC(=N)N)NC(=O)[C@@H](NC(=O)[C@H](CCCNC(=N)N)NC(=O)[C@@H](NC(=O)[C@H](CCCCN)NC(=O)[C@@H](N)CCCCN)[C@@H](C)CC)C(C)C)C(=O)NCCC(=O)O)C(C)C` [L-M33, KKIRVIRLSA, reference compound]?
haemolytic activity (percentage of haemolysis) [1]: < 5%; MIC [2]: 6 µM (≈ 28.1 µg/mL); degradation by protease Aureolysin (HPLC profile) [3]: degraded after only 1 hour of incubation; MIC [4]: 1.5 µM (≈ 7.02 µg/mL); MIC [5]: 1.5 µM (≈ 7.02 µg/mL); MIC [6]: 3 µM (≈ 14 µg/mL); MIC [7]: 1.5 µM (≈ 7.02 µg/mL); MIC [8]: 1.5 µM (≈ 7.02 µg/mL); MIC [9]: 1.5 µM (≈ 7.02 µg/mL)

Which MIC [10] does the source give for `CC[C@@H](C)[C@@H](NC(=O)[C@@H](CCCCN)NC(=O)[C@H](N)CCCCN)C(=O)N[C@H](CCCNC(=N)N)C(=O)N[C@@H](C(=O)N[C@H](CCCNC(=N)N)C(=O)N[C@H](CC(C)C)C(=O)N[C@H](CO)C(=O)N[C@H](C)C(=O)NCCCCC(NC(=O)[C@@H](C)NC(=O)[C@@H](CO)NC(=O)[C@@H](CC(C)C)NC(=O)[C@@H](CCCNC(=N)N)NC(=O)[C@H](NC(=O)[C@@H](CCCNC(=N)N)NC(=O)[C@H](NC(=O)[C@@H](CCCCN)NC(=O)[C@H](N)CCCCN)[C@H](C)CC)C(C)C)C(=O)NCCCCC(NC(=O)C(CCCCNC(=O)[C@@H](C)NC(=O)[C@@H](CO)NC(=O)[C@@H](CC(C)C)NC(=O)[C@@H](CCCNC(=N)N)NC(=O)[C@H](NC(=O)[C@@H](CCCNC(=N)N)NC(=O)[C@H](NC(=O)[C@@H](CCCCN)NC(=O)[C@H](N)CCCCN)[C@H](C)CC)C(C)C)NC(=O)[C@@H](C)NC(=O)[C@@H](CO)NC(=O)[C@@H](CC(C)C)NC(=O)[C@@H](CCCNC(=N)N)NC(=O)[C@H](NC(=O)[C@@H](CCCNC(=N)N)NC(=O)[C@H](NC(=O)[C@@H](CCCCN)NC(=O)[C@H](N)CCCCN)[C@H](C)CC)C(C)C)C(=O)NCCC(=O)O)C(C)C` (stereo partly drawn) [D-M33, KKIRVRLSA] here?
The MIC was 12 µM (≈ 56.2 µg/mL).

What about the “haemolysis, result in words” value [1] of the same compound?
Its value is “negligible haemolysis grade”.

And the “haemolytic activity (percentage of haemolysis)” value [1]?
The value was less than 5%.

And the MIC [11]?
The MIC was 1.5 µM (≈ 7.02 µg/mL).

What about the MIC [12] of the same compound?
The MIC was 12 µM (≈ 56.2 µg/mL).

And the MIC [13]?
Its MIC is 0.35 µM (≈ 1.64 µg/mL).

What about the MIC [14] of the same compound?
The MIC was 0.35 µM (≈ 1.64 µg/mL).

And the MIC [15]?
Its MIC is 6 µM (≈ 28.1 µg/mL).

And the MIC [16]?
Its MIC is 12 µM (≈ 56.2 µg/mL).

What about the MIC [17] of the same compound?
Its MIC is 1.5 µM (≈ 7.02 µg/mL).

What about the MIC [2] of the same compound?
The MIC was 0.7 µM (≈ 3.28 µg/mL).

What about the MIC [18] of the same compound?
The MIC was 6 µM (≈ 28.1 µg/mL).

And the MIC [19]?
The MIC was 0.7 µM (≈ 3.28 µg/mL).

And the MIC [20]?
Its MIC is 0.7 µM (≈ 3.28 µg/mL).

What about the MIC [21] of the same compound?
The MIC was 3 µM (≈ 14 µg/mL).

What about the MIC [22] of the same compound?
Its MIC is 0.35 µM (≈ 1.64 µg/mL).

What about the MIC [23] of the same compound?
Its MIC is 0.7 µM (≈ 3.28 µg/mL).

And the MIC [24]?
Its MIC is 0.7 µM (≈ 3.28 µg/mL).

What about the MIC [25] of the same compound?
Its MIC is 0.35 µM (≈ 1.64 µg/mL).

And the MIC [26]?
Its MIC is 24 µM (≈ 112 µg/mL).

What about the MIC [27] of the same compound?
The MIC was 6 µM (≈ 28.1 µg/mL).

And the apparent toxicity signs [28]?
Its apparent toxicity signs is “did not produce apparent toxicity signs”.

What about the “animals protected from signs of sepsis and death (seven-day survival)” value [29] of the same compound?
Its value is 100%.

And the MIC [4]?
Its MIC is 3 µM (≈ 14 µg/mL).

What about the MIC [5] of the same compound?
Its MIC is 1.5 µM (≈ 7.02 µg/mL).

What about the MIC [6] of the same compound?
Its MIC is 0.7 µM (≈ 3.28 µg/mL).

And the MIC [7]?
Its MIC is 0.7 µM (≈ 3.28 µg/mL).

And the MIC [8]?
The MIC was 0.7 µM (≈ 3.28 µg/mL).

What about the MIC [9] of the same compound?
Its MIC is 3 µM (≈ 14 µg/mL).

And the “animals protected from signs of sepsis and death (seven-day survival)” value [30]?
The value was 100%.
